Laboratory results reported in the NIST ThermoML archive (doi:10.1021/acs.jced.6b00121).

Experiment: xn = mol fraction of the nth substance listed
Conditions: 100 kPa, Liquid; for viscosity: Falling or rolling sphere viscometry; for mass density: Vibrating tube method

CCCCCCCCCCC [undecane] + CCCCO
Conditions | mass density [kg/m3] | viscosity [mPa·s]
283.15 K, x1 = 0.1007 | 801.8 | 3.124
283.15 K, x1 = 0.2004 | 790.28 | 2.611
283.15 K, x1 = 0.299 | 781.12 | 2.24
283.15 K, x1 = 0.3981 | 773.6 | 1.939
283.15 K, x1 = 0.5006 | 767.02 | 1.722
283.15 K, x1 = 0.5964 | 761.98 | 1.582
283.15 K, x1 = 0.6982 | 757.32 | 1.471
283.15 K, x1 = 0.7979 | 753.51 | 1.416
283.15 K, x1 = 0.9 | 750.22 | 1.385
283.15 K, x1 = 1 | 747.78 | 1.371
288.15 K, x1 = 0.1007 | 798.03 | 2.731
288.15 K, x1 = 0.2004 | 786.48 | 2.294
288.15 K, x1 = 0.299 | 777.31 | 1.978
288.15 K, x1 = 0.3981 | 769.79 | 1.723
288.15 K, x1 = 0.5006 | 763.23 | 1.541
288.15 K, x1 = 0.5964 | 758.18 | 1.425
288.15 K, x1 = 0.6982 | 753.56 | 1.329
288.15 K, x1 = 0.7979 | 749.76 | 1.287
288.15 K, x1 = 0.9 | 746.49 | 1.26
288.15 K, x1 = 1 | 744.06 | 1.249
293.15 K, x1 = 0.1007 | 794.24 | 2.398
293.15 K, x1 = 0.2004 | 782.67 | 2.025
293.15 K, x1 = 0.299 | 773.49 | 1.755
293.15 K, x1 = 0.3981 | 765.96 | 1.54
293.15 K, x1 = 0.5006 | 759.41 | 1.387
293.15 K, x1 = 0.5964 | 754.38 | 1.29
293.15 K, x1 = 0.6982 | 749.77 | 1.212
293.15 K, x1 = 0.7979 | 746 | 1.176
293.15 K, x1 = 0.9 | 742.75 | 1.152
293.15 K, x1 = 1 | 740.35 | 1.145
298.15 K, x1 = 0.1007 | 790.42 | 2.115
298.15 K, x1 = 0.2004 | 778.83 | 1.795
298.15 K, x1 = 0.299 | 769.63 | 1.564
298.15 K, x1 = 0.3981 | 762.11 | 1.383
298.15 K, x1 = 0.5006 | 755.57 | 1.254
298.15 K, x1 = 0.5964 | 750.55 | 1.173
298.15 K, x1 = 0.6982 | 745.97 | 1.108
298.15 K, x1 = 0.7979 | 742.22 | 1.077
298.15 K, x1 = 0.9 | 739 | 1.058
298.15 K, x1 = 1 | 736.64 | 1.062
303.15 K, x1 = 0.1007 | 786.57 | 1.871
303.15 K, x1 = 0.2004 | 774.95 | 1.595
303.15 K, x1 = 0.299 | 765.75 | 1.392
303.15 K, x1 = 0.3981 | 758.22 | 1.248
303.15 K, x1 = 0.5006 | 751.7 | 1.139
303.15 K, x1 = 0.5964 | 746.69 | 1.071
303.15 K, x1 = 0.6982 | 742.14 | 1.016
303.15 K, x1 = 0.7979 | 738.42 | 0.991
303.15 K, x1 = 0.9 | 735.23 | 0.975
303.15 K, x1 = 1 | 732.93 | 0.982
308.15 K, x1 = 0.1007 | 782.69 | 1.663
308.15 K, x1 = 0.2004 | 771.05 | 1.426
308.15 K, x1 = 0.299 | 761.84 | 1.253
308.15 K, x1 = 0.3981 | 754.31 | 1.13
308.15 K, x1 = 0.5006 | 747.8 | 1.038
308.15 K, x1 = 0.5964 | 742.82 | 0.979
308.15 K, x1 = 0.6982 | 738.3 | 0.936
308.15 K, x1 = 0.7979 | 734.6 | 0.915
308.15 K, x1 = 0.9 | 731.45 | 0.902
308.15 K, x1 = 1 | 729.23 | 0.91
313.15 K, x1 = 0.1007 | 778.77 | 1.483
313.15 K, x1 = 0.2004 | 767.1 | 1.279
313.15 K, x1 = 0.299 | 757.88 | 1.131
313.15 K, x1 = 0.3981 | 750.36 | 1.028
313.15 K, x1 = 0.5006 | 743.87 | 0.95
313.15 K, x1 = 0.5964 | 738.91 | 0.901
313.15 K, x1 = 0.6982 | 734.42 | 0.864
313.15 K, x1 = 0.7979 | 730.76 | 0.847
313.15 K, x1 = 0.9 | 727.65 | 0.837
313.15 K, x1 = 1 | 725.53 | 0.847
318.15 K, x1 = 0.1007 | 774.8 | 1.326
318.15 K, x1 = 0.2004 | 763.11 | 1.152
318.15 K, x1 = 0.299 | 753.88 | 1.026
318.15 K, x1 = 0.3981 | 746.37 | 0.938
318.15 K, x1 = 0.5006 | 739.91 | 0.882
318.15 K, x1 = 0.5964 | 734.97 | 0.832
318.15 K, x1 = 0.6982 | 730.51 | 0.801
318.15 K, x1 = 0.7979 | 726.89 | 0.787
318.15 K, x1 = 0.9 | 723.83 | 0.779
318.15 K, x1 = 1 | 721.82 | 0.79
323.15 K, x1 = 0.1007 | 770.78 | 1.192
323.15 K, x1 = 0.2004 | 759.07 | 1.042
323.15 K, x1 = 0.299 | 749.84 | 0.934
323.15 K, x1 = 0.3981 | 742.34 | 0.858
323.15 K, x1 = 0.5006 | 735.91 | 0.804
323.15 K, x1 = 0.5964 | 731 | 0.771
323.15 K, x1 = 0.6982 | 726.58 | 0.749
323.15 K, x1 = 0.7979 | 722.99 | 0.733
323.15 K, x1 = 0.9 | 719.99 | 0.727
323.15 K, x1 = 1 | 718.11 | 0.74
328.15 K, x1 = 0.1007 | 766.71 | 1.074
328.15 K, x1 = 0.2004 | 754.97 | 0.945
328.15 K, x1 = 0.299 | 745.75 | 0.853
328.15 K, x1 = 0.3981 | 738.26 | 0.79
328.15 K, x1 = 0.5006 | 731.86 | 0.744
328.15 K, x1 = 0.5964 | 726.99 | 0.716
328.15 K, x1 = 0.6982 | 722.61 | 0.693
328.15 K, x1 = 0.7979 | 719.07 | 0.685
328.15 K, x1 = 0.9 | 716.13 | 0.68
328.15 K, x1 = 1 | 714.39 | 0.692
333.15 K, x1 = 0.1007 | 762.58 | 0.974
333.15 K, x1 = 0.2004 | 750.83 | 0.86
333.15 K, x1 = 0.299 | 741.61 | 0.782
333.15 K, x1 = 0.3981 | 734.14 | 0.729
333.15 K, x1 = 0.5006 | 727.78 | 0.69
333.15 K, x1 = 0.5964 | 722.94 | 0.667
333.15 K, x1 = 0.6982 | 718.61 | 0.647
333.15 K, x1 = 0.7979 | 715.12 | 0.641
333.15 K, x1 = 0.9 | 712.24 | 0.638
333.15 K, x1 = 1 | 710.68 | 0.651
338.15 K, x1 = 0.1007 | 758.39 | 0.882
338.15 K, x1 = 0.2004 | 746.61 | 0.785
338.15 K, x1 = 0.299 | 737.42 | 0.719
338.15 K, x1 = 0.3981 | 729.97 | 0.675
338.15 K, x1 = 0.5006 | 723.65 | 0.641
338.15 K, x1 = 0.5964 | 718.86 | 0.622
338.15 K, x1 = 0.6982 | 714.57 | 0.606
338.15 K, x1 = 0.7979 | 711.13 | 0.602
338.15 K, x1 = 0.9 | 708.34 | 0.601
338.15 K, x1 = 1 | 706.95 | 0.615
343.15 K, x1 = 0.1007 | 754.12 | 0.802
343.15 K, x1 = 0.2004 | 742.34 | 0.72
343.15 K, x1 = 0.299 | 733.15 | 0.663
343.15 K, x1 = 0.3981 | 725.75 | 0.626
343.15 K, x1 = 0.5006 | 719.48 | 0.598
343.15 K, x1 = 0.5964 | 714.72 | 0.582
343.15 K, x1 = 0.6982 | 710.49 | 0.569
343.15 K, x1 = 0.7979 | 707.12 | 0.566
343.15 K, x1 = 0.9 | 704.41 | 0.567
343.15 K, x1 = 1 | 703.22 | 0.58
348.15 K, x1 = 0.1007 | 749.78 | 0.732
348.15 K, x1 = 0.2004 | 738.01 | 0.662
348.15 K, x1 = 0.299 | 728.84 | 0.614
348.15 K, x1 = 0.3981 | 721.47 | 0.583
348.15 K, x1 = 0.5006 | 715.24 | 0.56
348.15 K, x1 = 0.5964 | 710.54 | 0.546
348.15 K, x1 = 0.6982 | 706.38 | 0.535
348.15 K, x1 = 0.7979 | 703.07 | 0.534
348.15 K, x1 = 0.9 | 700.47 | 0.536
348.15 K, x1 = 1 | 699.47 | 0.549
353.15 K, x1 = 0.1007 | 745.37 | 0.671
353.15 K, x1 = 0.2004 | 733.6 | 0.611
353.15 K, x1 = 0.299 | 724.46 | 0.57
353.15 K, x1 = 0.3981 | 717.14 | 0.544
353.15 K, x1 = 0.5006 | 710.97 | 0.525
353.15 K, x1 = 0.5964 | 706.32 | 0.514
353.15 K, x1 = 0.6982 | 702.22 | 0.506
353.15 K, x1 = 0.7979 | 698.99 | 0.505
353.15 K, x1 = 0.9 | 696.51 | 0.508
353.15 K, x1 = 1 | 695.72 | 0.522
358.15 K, x1 = 0.1007 | 740.87 | 0.617
358.15 K, x1 = 0.2004 | 729.1 | 0.565
358.15 K, x1 = 0.299 | 720.01 | 0.531
358.15 K, x1 = 0.3981 | 712.73 | 0.51
358.15 K, x1 = 0.5006 | 706.63 | 0.493
358.15 K, x1 = 0.5964 | 702.04 | 0.485
358.15 K, x1 = 0.6982 | 698.02 | 0.477
358.15 K, x1 = 0.7979 | 694.88 | 0.479
358.15 K, x1 = 0.9 | 692.52 | 0.483
358.15 K, x1 = 1 | 691.96 | 0.497
363.15 K, x1 = 0.1007 | 736.28 | 0.569
363.15 K, x1 = 0.2004 | 724.55 | 0.525
363.15 K, x1 = 0.299 | 715.49 | 0.497
363.15 K, x1 = 0.3981 | 708.28 | 0.479
363.15 K, x1 = 0.5006 | 702.24 | 0.465
363.15 K, x1 = 0.5964 | 697.72 | 0.458
363.15 K, x1 = 0.6982 | 693.78 | 0.452
363.15 K, x1 = 0.7979 | 690.73 | 0.455
363.15 K, x1 = 0.9 | 688.52 | 0.46
363.15 K, x1 = 1 | 688.18 | 0.475
